Assay results published in BindingDB's records for doi:10.1021/jm00172a024 (Rorer Central Research, 1990).

Molecular target: Cysteinyl leukotriene receptor 1 (Cavia porcellus)
Test: In vitro binding affinity against Cysteinyl leukotriene D4 receptor from guinea pig lung membrane

## CCCC(CCc1nnn[nH]1)Cc1ccc(OCc2ccc3ccccc3n2)cc1 (stereo unspecified)
  Ki: 11 nM
